Measured values from the supplement of paper PMC10307832.

Legend:
Test in all cases: relative viability (nuclei count vs DMSO), 5 days (fraction); higher = more cells survive
[1] = compound: C1/C(=C\C2=CC=CS2)/C(=O)/C(=C/C3=CC=CS3)/C1 + CC(=O)Nc1cccc(-n2c(=O)n(C3CC3)c(=O)c3c(Nc4ccc(I)cc4F)n(C)c(=O)c(C)c32)c1 [Trametinib] (partner 0.02 µM)
In short: (§1)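 Lung cancer cell lines, seeded in 1536-well plates, were treated the following day by pin tool with a single drug or with five library-drug doses (not always all listed) in √10 steps on top of a fixed anchor-drug dose. Cells were fixed and nuclei stained in one step after 5 days, and nuclei were counted. Relative viability is the nuclei count for treated wells divided by that for vehicle wells, reported as medians of duplicate plates.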

[2] = compound: C[C@]12O[C@H](C[C@]1(O)CO)n1c3ccccc3c3c4c(c5c6ccccc6n2c5c31)CNC4=O [Lestaurtinib] + COc1cc2c(Oc3ccc(NC(=O)C4(C(=O)Nc5ccc(F)cc5)CC4)cc3F)ccnc2cc1OCCCN1CCOCC1 [Foretinib] (partner 0.25 µM)
In short: as §1

[3] = compound: C[C@]12O[C@H](C[C@]1(O)CO)n1c3ccccc3c3c4c(c5c6ccccc6n2c5c31)CNC4=O [Lestaurtinib] + N=C(N)NC(=N)NCCc1ccccc1 [Phenformin] (partner 250 µM)
In short: as §1

[4] = compound: C1=CC(=CC=C1C2=CC(=C(S2)NC(=O)N)C(=O)N)F [TPCA-1] + Nc1nc2[nH]cc(CCc3ccc(C(=O)N[C@@H](CCC(=O)O)C(=O)O)cc3)c2c(=O)[nH]1 [Pemetrexed] (partner 0.2 µM)
In short: as §1

## UMC-11
[1]; first compound 0.2 µM
  relative viability: 0.69
[1]; first compound 0.6325 µM
  relative viability: 0.737
[1]; first compound 2 µM
  relative viability: 0.675
[1]; first compound 6.325 µM
  relative viability: 0.671
[1]; first compound 20 µM
  relative viability: 0.715
[2]; first compound 0.005 µM
  relative viability: 1.03
[2]; first compound 0.01581 µM
  relative viability: 0.891
[2]; first compound 0.05 µM
  relative viability: 0.46
[2]; first compound 0.1581 µM
  relative viability: 0.273
[2]; first compound 0.5 µM
  relative viability: 0.175
[3]; first compound 0.005 µM
  relative viability: 0.359
[3]; first compound 0.01581 µM
  relative viability: 0.327
[3]; first compound 0.05 µM
  relative viability: 0.239
[3]; first compound 0.1581 µM
  relative viability: 0.176
[3]; first compound 0.5 µM
  relative viability: 0.144
[4]; first compound 0.04 µM
  relative viability: 0.809
[4]; first compound 0.1265 µM
  relative viability: 0.763
[4]; first compound 0.4 µM
  relative viability: 0.843
[4]; first compound 1.265 µM
  relative viability: 0.776
[4]; first compound 4 µM
  relative viability: 0.799
